The values below come from patent US7696207B2, “Therapeutic agents useful for treating pain” (Purdue Pharma L.P., priority 2002, dated 2010).

The target in assay [1] is T1, human VR1 (Homo sapiens, UniProt Q8NER1).
T1 construct: expressed in transfected cells
The assay can be described thus: VR1 pH-based assay (FLIPR calcium influx). The class given is cell-based. Conditions: HEK293-EcR cells induced to express human VR1; activation by agonist buffer pH 5.5; Fluo-4, FLIPR. Here is the method: (§1) Human VR1 cloning. Human spinal cord RNA (commercially available from Clontech, Palo Alto, Calif.) was used. Reverse transcription was conducted on 1.0 μg total RNA using Thermoscript Reverse Transcriptase (commercially available from Invitrogen, Carlsbad, Calif.) and oligo dT primers as detailed in its product description. Reverse transcription reactions were incubated at 55° C. for 1 h, heat-inactivated at 85° C. for 5 min, and RNase H-treated at 37° C. for 20 min.
(§2) Human VR1 cDNA sequence was obtained by comparison of the human genomic sequence, prior to annotation, to the published rat sequence. Intron sequences were removed and flanking exonic sequences were joined to generate the hypothetical human cDNA. Primers flanking the coding region of human VR1 were designed as follows: forward primer, […] (SEO ID NO: 1); and reverse primer, […] (SEO ID NO: 2). […]
(§3) Generation of inducible cell lines. […] On the day of assay, cells were loaded with Fluo-4 (a calcium-sensitive dye that is commercially available from Molecular Probes, Eugene, Oreg.) and CAP-mediated calcium influx was measured using a Fluorometric Imaging Plate Reader (“FLIPR”) (commercially available from Molecular Devices Corp., Sunnyvale, Calif.) as described below. […]

Assay [2] deals with T1, human VR1. The experiment in a line: VR1 capsaicin-based assay (FLIPR calcium influx). Format: cell-based. The settings on record: HEK293-EcR cells induced to express human VR1; activation by capsaicin (400 nM); Fluo-4, FLIPR. The method, then: as §1, §2, §3

SMILES strings stand for the structures.

T1 sequence (Q8NER1 whole entry): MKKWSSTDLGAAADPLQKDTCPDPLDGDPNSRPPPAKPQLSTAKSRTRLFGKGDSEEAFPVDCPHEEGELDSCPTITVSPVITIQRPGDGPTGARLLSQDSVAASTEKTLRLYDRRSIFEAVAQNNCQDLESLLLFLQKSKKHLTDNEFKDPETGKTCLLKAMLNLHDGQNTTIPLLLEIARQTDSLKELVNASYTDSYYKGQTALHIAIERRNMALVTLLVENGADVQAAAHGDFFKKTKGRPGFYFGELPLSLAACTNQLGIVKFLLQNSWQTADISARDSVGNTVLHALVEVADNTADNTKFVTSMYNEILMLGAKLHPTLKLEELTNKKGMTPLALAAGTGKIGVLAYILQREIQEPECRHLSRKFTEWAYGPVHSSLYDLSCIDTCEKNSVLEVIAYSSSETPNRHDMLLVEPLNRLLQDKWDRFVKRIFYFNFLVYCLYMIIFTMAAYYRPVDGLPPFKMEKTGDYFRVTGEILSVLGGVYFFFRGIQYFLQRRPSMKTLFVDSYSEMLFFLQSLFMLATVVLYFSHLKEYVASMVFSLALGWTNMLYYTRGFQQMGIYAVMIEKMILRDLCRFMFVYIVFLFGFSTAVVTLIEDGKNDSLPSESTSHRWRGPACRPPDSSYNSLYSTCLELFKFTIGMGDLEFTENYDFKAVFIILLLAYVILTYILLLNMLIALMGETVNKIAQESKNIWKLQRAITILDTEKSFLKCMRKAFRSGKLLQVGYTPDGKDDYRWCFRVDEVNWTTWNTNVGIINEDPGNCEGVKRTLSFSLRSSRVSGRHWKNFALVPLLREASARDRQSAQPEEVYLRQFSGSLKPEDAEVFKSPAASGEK

As usually defined, the IC50 is the point on the concentration scale where inhibition reaches its midpoint. As for `Cc1ccnnc1N1CCN(C(=O)Nc2ccc(C(C)(C)C)cc2)CC1` [Compound A17, 4-(4-Methyl-pyridazin-3-yl)-piperazine-1-carboxylic acid (4-tert-butyl-phenyl)-amide], the values for the IC50 at human VR1 [1] and at human VR1 [2] were 221 ± 50.5 nM and 47.2 ± 9.9 nM, respectively.
